Assays:
Type in all cases: cell-based
[1] = tested on: NRF2 and HSF1; assay: Western blot of NRF2 and HSF1 in nuclear extracts of NB4 cells; conditions: 1 μM fenretinide, within 6 hours
Description: Transcriptome analysis of fenretinide-induced apoptosis in leukemia cell lines facilitated in-depth mining of biological information relevant to oxidative stress-mediated apoptosis, including the prediction of upstream transcription factors potentially involved in gene regulation. Of several dozens of transcriptional regulators predicted, stress-responsive transcription factors NRF2 and HSF1 are of particular interest for understanding how oxidative signaling is translated into downstream effects. NRF2 is known as a key regulator of intracellular redox balance, activating genes encoding antioxidative proteins under oxidative stress (Jaiswal, 2004; D'Autreaux and Toledano, 2007). Although HSF1 is commonly recognized as a heat-shock motivated transcription factor (Hayashida et al., 2006), it can also be activated by oxidative stress under certain circumstances (Ahn and Thiele, 2003). We therefore further investigated the temporal abundance and spatial localization of there two stress-responsive transcription factors during fenretinide-induced apoptosis in NB4 cells. […] The induction of NRF2 was extended beyond the 24 hour whereas HSF1 induction was terminated at this time point. […] Also, nuclear gathering of NRF2 was sustained beyond the 24 hour treatment whereas that of HSF1 was terminated. […]

[2] = tested on: HL60 cells; assay: Annexin V apoptosis assay in proliferating and serum-deprived quiescent HL60 cells; conditions: 24 h
Procedure: HL60 cells were cultured in RPMI 1640 supplemented (i) with or (ii) without 10% fetal bovine serum to obtain proliferating and quiescent leukemia cells respectively. Serum-deprived quiescent leukemic cells and proliferating leukemic cells were then cultured in media containing 0.5% FBS, and treated with 1 μM and 2.5 μM fenretinide, and also with chemotherapeutics as controls, 20 μM idarubicin (IDA) and 5 μM cytarabine (Ara-C).
(§1) 2×10^5 cultured cells were used for evaluating apoptosis using an ApoAlert Annexin V-FITC Apoptosis Kit (BD Biosciences). Cells were washed once by PBS, resuspended in 200 μl Annexin-V binding buffer, and then stained with Annexin V-FITC 5 μl, PI 10 μl for 15 min at room temperature in the dark. Cells were subsequently analyzed by flow cytometry.
To examine the effects of fenretinide on proliferating and quiescent leukemia cells, HL60 cells were chosen as serum deprived quiescent leukemic cell model obtained when incubated in RPMI 1640 without serum for 48 h, with G0/G1 phase cells (being in quiescent state) accounting up to 59.9%. Serum-deprived quiescent leukemic cells and proliferating leukemic cells were then cultured in media containing 0.5% FBS, and treated with 1 μM and 2.5 μM fenretinide, and also with chemotherapeutics as controls, 20 μM idarubicin (IDA) and 5 μM cytarabine (Ara-C). […] Fenretinide induces intracellular production of ROS, lowers mitochondrial transmembrane potential (MTP), and eventually leads to apoptosis in a variety of malignancies. We measured MTP induced by fenretinide in proliferating and quiescent HL60 cells, as examined through rhodamine 123 and propidium iodide staining and followed by flow cytometry analysis. […] We further measured intracellular ROS abundance induced by fenretinide. […] After incubation with 1 μM and 2.5 μM fenretinide for 3 h, the ROS level of proliferating cells increased by 1.77 and 2.6 fold, respectively.

[3] = tested on: U937; assay: Apoptosis in AML cell line U937; conditions: U937, within 48 hours, alone or combined
Procedure: as §1
There are two observations that drive us in further exploring alternative therapeutic combinations. As illustrated in Example 6, proteasome inhibitors can potentate fenretinide-induced apoptosis in leukemia. […] The apoptosis rates were quite low when treated alone within 48 hours (nearly 5%), and the number doubled when treated by fenretinide and MG132.

CC1=C(/C=C/C(C)=C/C=C/C(C)=C/C(=O)Nc2ccc(O)cc2)C(C)(C)CCC1 [fenretinide, N-(4-hydroxyphenyl)retinamide]
protein levels of NRF2 and HSF1 in nuclear extracts [1]: markedly elevated | percentage of apoptotic cells ([2]; proliferating HL60 cells, 1 μM fenretinide): 11.8% | percentage of apoptotic cells ([2]; proliferating HL60 cells, 2.5 μM fenretinide): 36.8% | percentage of apoptotic cells ([2]; serum-deprived quiescent HL60 cells, 1 μM fenretinide): 39.5% | percentage of apoptotic cells ([2]; serum-deprived quiescent HL60 cells, 2.5 μM fenretinide): 52.7% | apoptosis rate [3]: ~5%
